Reference: patent publication US5824706A (priority 1995, dated 1998)
pEC50: −log10 of the molar value. Read-outs that look alike come from different tables or passages of the source.

Assays:
[1] = system: FluV-A; assay: microbe, parasite or virus in culture; assay type: cell-based, influenza virus A/Ishikawa/7/82 (H3N2)
[2] = system: RSV; assay: microbe, parasite or virus in culture; assay type: cell-based, RSV Long strain (type-A); settings: human respiratory syncytial virus
[3] = system: MLSV; assay: microbe, parasite or virus in culture; assay type: cell-based, Measles virus (MLSV) Edmonston strain; settings: Measles morbillivirus
[4] = system: FluV-B; assay: MTT antiviral assay, FluV-B in MDCK cells; assay type: cell-based, influenza virus B/Singapore/222/79; settings: influenza B virus, read-out: EC50 FluV-B (Singapore)
[5] = system: RSV-A (FM-58-8); assay: microbe, parasite or virus in culture; assay type: cell-based, RSV FM-58-8 (type-A); settings: human respiratory syncytial virus; Table 3; fresh isolate; ^b data from one experiment
[6] = system: RSV-B (SM61-48); assay: microbe, parasite or virus in culture; assay type: cell-based, RSV SM-61-48 (type-B); settings: human respiratory syncytial virus; Table 3; fresh isolate; ^b data from one experiment
[7] = system: MPSV; assay: MTT antiviral assay, mumps virus in HMV-2 cells; assay type: cell-based, mumps virus (MPSV) ECXH-3 strain; settings: Mumps orthorubulavirus, HMV-2, read-out: EC50 MPSV (EXCH-3)
[8] = system: PFluV-2; assay: MTT antiviral assay, parainfluenzavirus type 2 in HMV-2 cells; assay type: cell-based, Greer strain; settings: Table 3, average of 3 to 4 independent experiments, read-out: EC50 PFluV-2 (Greer)
[9] = system: PFluV-3; assay: MTT antiviral assay, parainfluenzavirus type 3 in Vero cells; assay type: cell-based, C243 strain; settings: Table 3, average of 3 to 4 independent experiments, read-out: EC50 PFluV-3 (C243)
[10] = system: HMV-2 cells; settings: read-out: Cytotoxicity IC50 HMV-2, Table 3
[11] = in vitro; settings: dog, mdck
[12] = in vitro; settings: human, hep-2 cells
[13] = in vitro; settings: human, hmv-2 cells
[14] = in vitro; settings: monkey, vero cells, Cytotoxicity IC50 Vero, Table 3
[15] = viable cell counting (parentheses)

With `NC(=O)c1ncn([C@@H]2O[C@H](CO)[C@@H](O)[C@H]2O)n1` [Ribavirin] the pEC50 ([1]; Ishikawa, read-out: EC50 FluV-A (Ishikawa)) was 5.43, the pEC50 ([1]; MDCK, read-out: Antiviral activity, EC50 FluV-A) was 5.06 and the pEC50 ([2]; Table 2, read-out: Antiviral activity, EC50 RSV) was 5.33. It also gave a pEC50 ([2]; Table 3, average of 3 to 4 independent experiments, read-out: EC50 RSV-A (Long)) of 5.33, a pEC50 ([3]; HMV-2, read-out: Antiviral activity, EC50 MLSV) of 5.28 and a pEC50 ([3]; HMV-2, read-out: EC50 MLSV (Edmonston)) of 5.28. It also gave a pEC50 [4] of 5.29, a pEC50 [5] of 5.46 and a pEC50 [6] of 5.80. It also gave a pEC50 [7] of 5.47, a pEC50 [8] of 5.05 and a pEC50 [9] of 4.76. It also gave a CC50 ([10]; MTT method) of over 100 µM, a CC50 [10, 15] of over 100 µM and a CC50 ([11]; Cytotoxicity IC50 MDCK, Table 3, MTT method) of over 200 µM. For the same compound, the CC50 ([11]; Cytotoxicity IC50 MDCK, Table 3, viable cell counting (parentheses)) was over 200 µM, the CC50 ([11]; Cytotoxicity, IC50 MDCK, Table 2) was over 100 µM and the CC50 ([12]; Cytotoxicity IC50 HEp-2, Table 3, MTT method) was 52.7 µM. The CC50 ([12]; Cytotoxicity IC50 HEp-2, Table 3, viable cell counting (parentheses)) was over 200 µM, the CC50 ([12]; Cytotoxicity, IC50 HEp-2, Table 2) was over 50 µM and the CC50 [13] was over 100 µM. The CC50 ([14]; MTT method) was 100 µM and the CC50 [14, 15] was over 200 µM.
